According to patent US20030022243A1, “Protein aggregation assays and uses thereof” (priority 2001, published 2003):

Experiments:
Format in all cases: biochemical
[1] = molecular target: T1, SOD-1, from human erythrocytes (Homo sapiens, UniProt P00441); assay: MCO (ascorbate/Cu)-induced SOD-1 aggregation, right angle light scattering
T1 construct: SOD-1 was purchased from Sigma (purified from erythrocytes) and dissolved in the appropriate buffer; purchased Sigma-Aldrich Fine Chemicals (St. Louis, Mo., USA); host or cells: human erythrocytes
T1 sequence (P00441 2-154 limits assumed): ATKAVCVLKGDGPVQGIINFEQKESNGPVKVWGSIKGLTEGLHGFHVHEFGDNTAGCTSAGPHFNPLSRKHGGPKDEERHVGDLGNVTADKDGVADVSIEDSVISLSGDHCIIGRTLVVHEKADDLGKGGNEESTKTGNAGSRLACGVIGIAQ
Method: The effect of pH, copper ions, and ascorbic acid on the induction of SOD-1 aggregation was examined as follows. […] Right angle light scattering was measured at room temperature using a Photon Technology International QM-1 fluorescence spectrophotometer. Both the excitation and emission wavelengths were set to 350 nm and a 1 nm bandpass. A cuvette with an excitation and emission path lengths of 2 mm and 10 mm, respectively was used for the measurements.
In addition, right angle light scattering was measured using a DynaPro99 Molecular Sizing Instrument with attached MicroSampler-MSXTC/12 (Protein Solutions, Inc., Charlottesville, Va.). A 12 μl-DynaPro quartz cuvette with a path length of 1.5 mm was used for all experiments. In the measurement, the SOD-1 sample solution was illuminated by a 60 mW, 825 nm solid-state laser, and the intensity of light scattered at a 90° angle was measured directly as the solution photon count rate in units of kcounts/sec. The averaged count rate was automatically calculated after all acquisitions of the measurements.

[2] = molecular target: Zinc-deficient SOD-1 (Homo sapiens, UniProt P00441); assay: MCO-induced aggregation of zinc-deficient SOD-1, light scattering; conditions: 37° C.
Chain of Zinc-deficient SOD-1 (P00441 2-154 limits assumed): as above
Method: Apo-SOD-1 was incubated in the presence of a 1.1-fold molar excess of CuCl2 in 17 mM sodium acetate buffer, pH 3.8, for 24 hours at 40° C.
Zinc-deficient SOD-1 was prepared, MCO-treated, and used to test various compounds and conditions for their effect on SOD-1 aggregation. Zinc-deficient SOD-1 aggregation mixtures were incubated with either 2 mM EDTA, 10 mM mannitol, or 10 mM DMPO as probes for the reactive oxygen species. Anaerobic conditions were achieved by degassing all solutions and oxidizing under vacuum (37° C.) in a vacuum hydrolysis tube (Pierce). Aggregates were detected using light scattering measurements made with a Photon Technology International QM-1 fluorescence spectrophotometer. Excitation and emission wavelengths were set to 350 nm (bandpass=4 nm).

[3] = molecular target: apo-SOD-1 (Homo sapiens, UniProt P00441); assay: Native state stabilization assay (thermal aggregation of apo-SOD-1, RP-HPLC of soluble SOD-1); conditions: apo-SOD-1 incubated at 60° C. with exogenous metal
Chain of apo-SOD-1 (P00441 2-154 limits assumed): as above
Method: Apo-SOD-1 was prepared from holo-SOD-1 as reported (Crow et al., J. Neurochem., 69:1936, 1997). Holo-SOD-1 was first extensively dialyzed against 10 mM sodium acetate buffer containing 1 mM EDTA, pH 3.8 for 24-72 hours, then dialyzed against 10 mM sodium acetate buffer containing 100 mM NaCl, pH 3.8, and finally dialyzed against the desired buffer.
For FIG. 17, apo-SOD-1 (100 μl) prepared as described above at a concentration of 30 μM in 10 mM sodium acetate buffer, pH 5.0, was incubated for 24 hours at either 4°, 37°, or 60° C. in sealed polypropylene tubes. […] RP-HPLC was carried out on a Zorbax SB300 C8 column (3.0×10 cm, 3.5 μm particle size) using a linear 4% B per min AB gradient at a flow rate of 1.0 ml/min, where A was 0.1% aqueous TFA and B was 0.1% TFA in acetonitrile. Detection was based on UV absorbance at 215 nm. In contrast, the sample incubated at 60° C. contained essentially no soluble SOD-1 in the supernatant as measured by the same method of analysis.
An example of the use of the native state stabilization assay to test agents for inhibition of aggregation can be found in FIG. 18. Apo-SOD-1 samples were incubated under various conditions and analyzed by RP-HPLC to quantitate amounts of soluble SOD-1 remaining. Apo-SOD-1 incubated at 4° C. […] (positive aggregation control; chromatogram a). […]

[4] = 10 mM free radical scavenger in the oxidation reaction

Question: For [Cl][Cu][Cl] [CuCl2], which “induction of SOD-1 aggregates” value ([1]; 25 μM CuCl2 in 10 mM sodium phosphate, no ascorbic acid, 38 hours) is on record?
Answer: no aggregates of SOD-1 were induced

Question: And the “relative amount of aggregation induced by ascorbic acid” value ([1]; addition of 25 μM CuCl2 to 2 mM ascorbic acid)?
Answer: significantly enhanced

Question: Which “inhibition of MCO-induced aggregation (light scattering)” value (from here on “inhibition of MCO-induced aggregation”) [2, 4] does the source give for CC1(C)CCC=[N+]1[O-] [DMPO] here?
Answer: did not inhibit aggregation

Question: For O=C(O)CN(CCN(CC(=O)O)CC(=O)O)CC(=O)O [EDTA], which “inhibition of MCO-induced aggregation” value ([2]; 2 mM EDTA in the oxidation reaction) is on record?
Answer: inhibited aggregation

Question: With O=C1O[C@H]([C@@H](O)CO)C(O)=C1O [ascorbic acid] as the compound, how does the “induction of SOD-1 aggregates detectable by right angle light scattering” value ([1]; 2 mM ascorbic acid, 10 mM phosphate buffer pH 6, 37° C., 38 hours) read?
Answer: resulted in the formation of aggregates

Question: Which “soluble SOD-1 remaining versus apo-SOD-1 without exogenous metal (RP-HPLC)” value [3] does the source give for [Cu] [copper] here?
Answer: significantly more soluble SOD-1

Question: OC[C@@H](O)[C@@H](O)[C@H](O)[C@H](O)CO [mannitol] was tested. Which “inhibition of MCO-induced aggregation” value [2, 4] did it give?
Answer: did not inhibit aggregation

Question: How did the “soluble SOD-1 remaining versus apo-SOD-1 without exogenous metal (RP-HPLC)” value [3] turn out when [Zn] [zinc] was run?
Answer: significantly more soluble SOD-1
